Experimental data reported in patent publication US12662707B2, “MYC amplification drives resistance to pan-RAS inhibitors in pancreatic cancer” (The Trustees of Columbia University in the City of New York, priority 2024, dated 2026).

What was measured:
[1] = test system: KPC tumor-derived cell lines; test: Viability of cell lines from RMC-7977 resistant or naive KPC tumors; assay type: cell-based, murine
Text: Patient-derived xenograft (PDX) human PDAC cell lines were provided by Dr. Anirban Maitra (MD Anderson Cancer Center): Pa01C, Pa02C, Pa14C, and Pa16C. hF39 and hF43 cell lines were provided by Dr. David Tuveson (Cold Spring Harbor Laboratory). The UM147 PDX cell line was obtained from University of Michigan (PMID: 17283135). PaCaDD-137 and PaCaDD-165 were obtained from the German Collection of Microorganisms and Cell Cultures GmbH (DSMZ, world wide web dsmz.de/). All remaining cell lines were obtained from the American Type Culture Collection (ATCC). […]
PDAC murine cell lines harboring KrasG12D or KrasG12C mutations were seeded at 2×10^3 in a 96-well plate. […] Cell viability was evaluated 72 hours later by measuring adenosine triphosphate (ATP) levels using the CellTiter-Glo® Luminescent Cell Viability Assay (Promega, G7572) according to the manufacturer's instructions. For experiments comparing naive and resistant cell lines, live cells were fluorescently labelled using Calcein AM (20-minute incubation at 500 nM, Thermo Fisher) and counted using the SpectraMax i3X multimode detection platform (Molecular Devices). […] Growth percentage was calculated by normalizing drug-treated values to DMSO control, which was set to 100%. […]

[2] = test system: human DUSP6 expression in Capan-1 CDX tumors; test: PK/PD in Capan-1 xenograft tumors (DUSP6 qRT-PCR); assay type: in vivo, mouse
Method: Tumor-bearing animals were randomized and assigned into groups (n=3-10/group). Vehicle or RMC-7977 was administered via oral gavage daily at 10 mg/kg and animals were treated for 21-28 days. Studies were terminated early if tumor burden reached humane endpoint. Body weights were collected twice a week during the study. Means±s.e.m were plotted in the waterfall plots. For the single-dose pharmacokinetic/pharmacodynamic (PK/PD) study, mice were randomized and assigned into groups (n=3-6/dose/timepoint). A single dose of RMC-7977 was administered orally at 10 mg/kg, 25 mg/kg and 50 mg/kg. […]
Whole blood, tumor, colon and skin tissue concentrations of RMC-7977 were determined using liquid chromatography-tandem mass spectrometry (LC-MS/MS) methods. […] After thorough mixing and centrifugation, the supernatant was directly analyzed on a Sciex 6500+ triple quadrupole mass spectrometer equipped with an ACQUITY or Shimadzu UPLC system. […] RMC-7977 and IS (verapamil or terfenadine) were detected by positive electrospray ionization using multiple reaction monitoring (RMC-7977: m/z 865.4/706.4 or m/z 865.3/833.5; verapamil: m/z 455.2/164.9; terfenadine: m/z 472.3/436.4). The lower limit of quantification was 0.5 ng/mL or 2.0 ng/mL for blood, tumor, and other tissue. […]

Question: Which “sensitivity of treatment-naive MycGain line K2293” value ([1]; K2293) does the source give for CCn1c(-c2cc(N3CCN(C4CC4)CC3)cnc2[C@H](C)OC)c2c3cc(ccc31)-c1csc(n1)C[C@H](NC(=O)[C@H]1[C@@H]3COC[C@@H]31)C(=O)N1CCC[C@H](N1)C(=O)OCC(C)(C)C2 [RMC-7977] here?
Answer: lower sensitivity

Question: What about the “sensitivity of lines from resistant tumors vs control KPC cell line (K8484)” value ([1]; all six lines from resistant tumors, 3-5 days) of the same compound?
Answer: less sensitive

Question: And the EC50 ([2]; Mus musculus, CAPAN-1, read-out: EC50, inhibition of DUSP6 expression vs RMC-7977 concentration in tumors)?
Answer: 0.142 µM

Question: And the “duration of DUSP6 inhibition post-dose” value ([2]; single dose 10, 25 or 50 mg/kg)?
Answer: 24 to 48 h
